In ChEMBL document CHEMBL5537204, “Identifying Marine-Derived Tanzawaic Acid Derivatives as Novel Inhibitors against Osteoclastogenesis and Osteoporosis via Downregulation of NF-κB and NFATc1 Activation” (J Med Chem, 2024):
Activity calls are given as the source filed them. The rule behind the calls is not given here.

Experiments:
RAW264.7 [1] = experiment: Inhibition of LPS-induced NF-kappaB activation in mouse RAW264.7 cells expressing luciferase gene preincubated with compound for 30 mins followed by LPS-induction and measured after 6 hrs by luciferase reporter gene assay; assay type: cell-based; conditions: dose 20.0 µM, time 6.5 hrs
BMMC [2] = experiment: Anti-osteoporosis activity in C57BL/6 mouse BMMC cells assessed as reduction in RANKL-induced osteoclasts formation at 10 uM incubated for 4 days in presence of MCSF by TRAP staining based assay; assay type: functional
RAW264.7 [3] = experiment: Inhibition of LPS-induced NF-kappaB activation in mouse RAW264.7 cells expressing luciferase gene at 20 uM preincubated with compound for 30 mins followed by LPS-induction and measured after 6 hrs by luciferase reporter gene assay; assay type: cell-based; conditions: time 6.5 hrs
[4] = Toxicity in C57BL/6 mouse assessed as animal death at 60 mg/kg, IG administered every 3 days for 46 days; assay type: organism-based; conditions: in vivo, po, 1104 h, time 46 day
[5] = Toxicity in C57BL/6 mouse assessed as abnormal behavior at 60 mg/kg, IG administered every 3 days for 46 days; assay type: organism-based; conditions: in vivo, po, 1104 h, time 46 day
Mus musculus [6] = experiment: Anti-osteoporosis activity in OVX-induced osteoporosis C57BL/6 mouse model assessed as prevention of bone loss in femur at 60 mg/kg, IG administered every 3 days for 8 weeks; assay type: functional, organism-based
Mus musculus [7] = experiment: Anti-osteoporosis activity in OVX-induced osteoporosis C57BL/6 mouse model assessed as increase in BV/TV in femur at 60 mg/kg, IG administered every 3 days for 8 weeks; assay type: functional, organism-based
Mus musculus [8] = experiment: Anti-osteoporosis activity in OVX-induced osteoporosis C57BL/6 mouse model assessed as increase in connectivity density in femur at 60 mg/kg, IG administered every 3 days for 8 weeks; assay type: functional, organism-based
BMMC [9] = experiment: Anti-osteoclastogenesis activity in C57BL/6 mouse BMMC cells assessed as reduction in RANKL-induced osteoclasts formation at 5 uM incubated for 4 days in presence of MCSF by TRAP staining based assay; assay type: functional; parameters: scale not given: the % may be the effect or the level left; conditions: time 4 day
BMMC [10] = experiment: Anti-osteoclastogenesis activity in C57BL/6 mouse BMMC cells assessed as reduction in RANKL-induced osteoclasts formation incubated for 4 days in presence of MCSF by TRAP staining based assay; assay type: functional, cell-based; conditions: dose 1-10 µM, time 4.0 day
BMMC [11] = experiment: Cytotoxicity against mouse BMMC cells assessed as reduction in cell viability at 10 uM incubated for 4 days by MTT assay; assay type: toxicity, cell-based; conditions: 96 h, time 4 day
RAW264.7 [12] = experiment: Inhibition of RANKL-induced NF-kappaB activation in mouse RAW264.7 cells expressing luciferase gene preincubated with compound for 4 hrs followed by LPS-induction and measured after 6 hrs by luciferase reporter gene assay; assay type: cell-based; conditions: dose 1-10 µM, time 10.0 hrs
RAW264.7 [13] = experiment: Inhibition of RANKL-induced NF-kappaB activation in mouse RAW264.7 cells expressing luciferase gene assessed as suppression of IkappaBalpha degradation at 1 to 10 uM preincubated with compound for 4 hrs followed by LPS-induction and measured after 6 hrs by Western blot analysis; assay type: cell-based; conditions: dose 1-10 µM, time 10.0 hrs
RAW264.7 [14] = experiment: Inhibition of RANKL-induced NF-kappaB activation in mouse RAW264.7 cells expressing luciferase gene assessed as reduction in p65 protein level in nucleus preincubated with compound for 4 hrs followed by LPS-induction and measured after 6 hrs by Western blot analysis; assay type: cell-based; conditions: dose 1-10 µM, time 10.0 hrs
BMMC [15] = experiment: Anti-osteoclastogenesis activity in RANKL-induced C57BL/6 mouse BMMC cells assessed as suppression of NFATc1 expression level in nucleus at 1 to 10 uM pretreated with compound for 4 hrs followed by RANKL-induction and measured after 24 hrs by Western blot analysis; assay type: functional, cell-based; conditions: dose 1-10 µM, time 28.0 hrs
BMMC [16] = experiment: Anti-osteoclastogenesis activity in RANKL-induced C57BL/6 mouse BMMC cells assessed as inhibition of TRAP mRNA expression pretreated with compound for 4 hrs followed by RANKL-induction and measured after 24 hrs by RT-PCR analysis; assay type: functional, cell-based; conditions: dose 1-10 µM, time 28.0 hrs
BMMC [17] = experiment: Anti-osteoclastogenesis activity in RANKL-induced C57BL/6 mouse BMMC cells assessed as inhibition of Atp6v0d2 mRNA expression pretreated with compound for 4 hrs followed by RANKL-induction and measured after 24 hrs by RT-PCR analysis; assay type: functional, cell-based; conditions: dose 1-10 µM, time 28.0 hrs
BMMC [18] = experiment: Anti-osteoclastogenesis activity in RANKL-induced C57BL/6 mouse BMMC cells assessed as inhibition of OSCAR mRNA expression pretreated with compound for 4 hrs followed by RANKL-induction and measured after 24 hrs by RT-PCR analysis; assay type: functional, cell-based; conditions: dose 1-10 µM, time 28.0 hrs
[19] = target: Transcription factor p65 (Mus musculus) (UniProt Q04207); experiment: Binding affinity to NF-kappaB p65 in mouse RAW264.7 cells assessed as thermal stabilization at 10 uM at 37 to 57 degreeC incubated for 4 hrs by CETSA assay; assay type: cell-based
Sequence of Transcription factor p65 (Mus musculus) (Q04207 whole entry): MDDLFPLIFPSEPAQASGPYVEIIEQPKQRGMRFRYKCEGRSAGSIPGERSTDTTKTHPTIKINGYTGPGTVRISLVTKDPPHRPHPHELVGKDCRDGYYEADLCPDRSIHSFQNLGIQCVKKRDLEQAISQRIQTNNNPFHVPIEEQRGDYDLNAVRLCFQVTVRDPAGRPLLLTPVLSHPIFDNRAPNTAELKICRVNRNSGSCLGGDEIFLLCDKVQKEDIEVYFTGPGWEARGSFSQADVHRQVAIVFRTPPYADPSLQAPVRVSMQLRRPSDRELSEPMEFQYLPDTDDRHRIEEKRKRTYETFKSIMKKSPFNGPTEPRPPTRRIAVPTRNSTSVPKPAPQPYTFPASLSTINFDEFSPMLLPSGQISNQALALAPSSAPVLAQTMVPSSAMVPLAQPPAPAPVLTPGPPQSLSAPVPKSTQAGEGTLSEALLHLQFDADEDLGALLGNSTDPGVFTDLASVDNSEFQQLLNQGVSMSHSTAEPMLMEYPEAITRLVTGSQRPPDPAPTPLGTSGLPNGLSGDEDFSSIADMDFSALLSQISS

Transcription factor p65 = Transcription factor p65 (Mus musculus, UniProt Q04207); experiment: Binding affinity to NF-kappaB p65 in mouse RAW264.7 cells assessed as dissociation constant by SPR analysis
Sequence of Transcription factor p65 (Q04207 whole entry): as above

RAW264.7 [20] = experiment: Downregulation of p65 expression in RANKL-induced mouse RAW264.7 cells expressing NFATc1 at 10 uM pretreated with compound for 4 hrs followed by RANKL-induction and measured after 24 hrs by Western blot analysis; assay type: functional, cell-based; conditions: time 28.0 hrs
[21] = Toxicity in C57BL/6 mouse assessed as animal death at 5 to 10 mg/kg, IG administered every 3 days for 46 days; assay type: organism-based; conditions: in vivo, po, 1104 h, dose 5-10 mg/kg, time 46 day
[22] = Toxicity in C57BL/6 mouse assessed as abnormal behavior at 5 to 10 mg/kg, IG administered every 3 days for 46 days; assay type: organism-based; conditions: in vivo, po, 1104 h, dose 5-10 mg/kg, time 46 day
Mus musculus [23] = experiment: Anti-osteoporosis activity in OVX-induced osteoporosis C57BL/6 mouse model assessed as prevention of bone loss in femur at 5 to 10 mg/kg, IG administered every 3 days for 8 weeks; assay type: functional, organism-based; conditions: dose 5-10 mg/kg
Mus musculus [24] = experiment: Anti-osteoporosis activity in OVX-induced osteoporosis C57BL/6 mouse model assessed as increase in BV/TV in femur at 5 to 10 mg/kg, IG administered every 3 days for 8 weeks; assay type: functional, organism-based; conditions: dose 5-10 mg/kg
Mus musculus [25] = experiment: Anti-osteoporosis activity in OVX-induced osteoporosis C57BL/6 mouse model assessed as increase in connectivity density in femur at 5 to 10 mg/kg, IG administered every 3 days for 8 weeks; assay type: functional, organism-based; conditions: dose 5-10 mg/kg
Mus musculus [26] = experiment: Anti-osteoporosis activity in OVX-induced osteoporosis C57BL/6 mouse model assessed as prevention of bone loss in femur at 5 to 10 mg/kg, IG administered every 3 days for 8 weeks by H and E staining based analysis; assay type: functional, organism-based; conditions: dose 5-10 mg/kg
Mus musculus [27] = experiment: Anti-osteoporosis activity in OVX-induced osteoporosis C57BL/6 mouse model assessed as prevention of bone loss in femur at 10 mg/kg, IG administered every 3 days for 8 weeks; assay type: functional, organism-based
Mus musculus [28] = experiment: Anti-osteoporosis activity in OVX-induced osteoporosis C57BL/6 mouse model assessed as downregulation of p65 expression in bone at 5 to 10 mg/kg, IG administered every 3 days for 8 weeks by IHC analysis; assay type: functional, organism-based; conditions: dose 5-10 mg/kg
Mus musculus [29] = experiment: Anti-osteoporosis activity in OVX-induced osteoporosis C57BL/6 mouse model assessed as downregulation of NFATc1 expression in bone at 5 to 10 mg/kg, IG administered every 3 days for 8 weeks by IHC analysis; assay type: functional, organism-based; conditions: dose 5-10 mg/kg

C[C@@H]1[C@@H](Cl)[C@H](O)[C@@H]2C[C@H](CO)C[C@H](C)[C@H]2[C@@H]1/C=C/C=C/C(=O)O
inhibition (RAW264.7 [1]): Dose-Dependent Effect | Activity (BMMC [2]; time 4.0 day): Active

C[C@@H]1C[C@@H]2[C@@H](C(=O)O)[C@H](C)[C@](O)(/C=C/C=C/C(=O)O)[C@H]2[C@H](C)C1
inhibition (RAW264.7 [1]): Dose-Dependent Effect

C[C@@H]1Cc2ccc(CO)c(/C=C/C=C/C(=O)O)c2[C@H](C)C1
inhibition (RAW264.7 [3]): Active

CC1=C(/C=C/C=C/C(=O)O)[C@@H]2[C@H](C[C@](C)(O)C[C@H]2C)[C@@H](O)[C@H]1O
inhibition (RAW264.7 [1]): Dose-Dependent Effect

C[C@@H]1[C@@H](Cl)[C@H](O)[C@@H]2C[C@@](C)(O)C[C@H](C)[C@H]2[C@]1(O)/C=C/C=C/C(=O)O
inhibition (RAW264.7 [1]): Dose-Dependent Effect

Cc1ccc2c(c1/C=C/C=C/C(=O)O)[C@H](C)C[C@H](C)[C@H]2O
inhibition (RAW264.7 [3]): Active

Cc1ccc2c(c1/C=C/C=C/C(=O)O)[C@H](C)C[C@@](C)(O)C2
inhibition (RAW264.7 [1]): Dose-Dependent Effect | inhibition (RAW264.7 [3]): Active

C[C@H]1C[C@H]2[C@@H](O)[C@H](Cl)[C@@H](C)[C@@](O)(/C=C/C=C/C(=O)O)[C@@H]2[C@@H](C)C1
inhibition (RAW264.7 [1]): Dose-Dependent Effect | Activity (BMMC [2]; time 4.0 day): Active

CC(=O)OC[C@H]1C[C@@H](C)[C@H]2[C@@H](C=C[C@H](C)[C@]2(O)/C=C/C=C/C(=O)O)C1
inhibition (RAW264.7 [1]): Dose-Dependent Effect

CC(=O)OCc1ccc2c(c1/C=C/C=C/C(=O)O)[C@H](C)C[C@H](C)C2
inhibition (RAW264.7 [3]): Active

CC(=O)OC[C@@H](C)C[C@@H](C)c1cccc(C)c1/C=C/C=C/C(=O)O
inhibition (RAW264.7 [1]): Dose-Dependent Effect | Activity (BMMC [2]; time 4.0 day): Active

C[C@@H]1C[C@@](C)(O)C[C@@H]2C=C[C@@](C)(/C=C/C=C/C(=O)O)C(=O)[C@@H]12
inhibition (RAW264.7 [1]): Dose-Dependent Effect

C[C@]12CC[C@@H]3c4ccc(O)cc4CC[C@H]3[C@@H]1CC[C@@H]2O [ESTRADIOL]
Activity [4]: Non-Toxic | Activity [5]: Non-Toxic | Activity (Mus musculus [6]): Active | Activity (Mus musculus [7]): Active | Activity (Mus musculus [8]): Active

CC(=O)OC[C@@H]1Cc2ccc(C)c(/C=C/C=C/C(=O)O)c2[C@H](C)C1
inhibition (RAW264.7 [3]): Active

CC(=O)C[C@@H](C)c1cccc(C)c1/C=C/C=C/C(=O)O
inhibition (RAW264.7 [1]): Dose-Dependent Effect

Cc1ccc2c(c1/C=C/C=C/C(=O)O)[C@H](C)C[C@H](C)C2
inhibition (RAW264.7 [3]): Active

CC1=C(/C=C/C=C/C(=O)O)[C@H]2[C@H](C=C1)C[C@H](C)C[C@@H]2C
inhibition (RAW264.7 [1]): Dose-Dependent Effect

C[C@@H]1[C@@H](O)[C@H](O)[C@@H]2C[C@H](CO)C[C@H](C)[C@H]2[C@]1(O)/C=C/C=C/C(=O)O
inhibition (RAW264.7 [1]): Dose-Dependent Effect

C[C@@H]1C[C@@](C)(O)C[C@@H]2C=C[C@H](C)[C@](O)(/C=C/C=C/C(=O)O)[C@@H]12
inhibition (RAW264.7 [1]): Dose-Dependent Effect | Activity (BMMC [2]; time 4.0 day): Active

Cc1cccc([C@H](C)C[C@H](C)CO)c1/C=C/C=C/C(=O)O
inhibition (RAW264.7 [1]): Dose-Dependent Effect | Activity (BMMC [2]; time 4 day): 69.7% | Activity (BMMC [9]): 49.2% | Activity (BMMC [10]): Dose-Dependent Effect | Activity (BMMC [11]): Non-Toxic | inhibition (RAW264.7 [12]): Dose-Dependent Effect | inhibition (RAW264.7 [13]): Active | inhibition (RAW264.7 [14]): Dose-Dependent Effect | Activity (BMMC [15]): Active | Activity (BMMC [16]): Dose-Dependent Effect | Activity (BMMC [17]): Dose-Dependent Effect | Activity (BMMC [18]): Dose-Dependent Effect | Activity [19]: Active | Kd (Transcription factor p65): 44.7 µM | Activity (RAW264.7 [20]): Active | Activity [21]: Non-Toxic | Activity [22]: Non-Toxic | Activity (Mus musculus [23]): Active | Activity (Mus musculus [24]): Active | Activity (Mus musculus [25]): Active | Activity (Mus musculus [26]): Active | Activity (Mus musculus [27]): Active | Activity (Mus musculus [28]): Active | Activity (Mus musculus [29]): Active

CO[C@H]1C=C(C)[C@H](/C=C/C=C/C(=O)O)[C@@H]2[C@@H]1C[C@@H](CO)C[C@H]2C
inhibition (RAW264.7 [1]): Dose-Dependent Effect

Cc1ccc2c(c1/C=C/C=C/C(=O)O)[C@H](C)C[C@@](C)(O)[C@H]2O
inhibition (RAW264.7 [1]): Dose-Dependent Effect | inhibition (RAW264.7 [3]): Active | Activity (BMMC [2]; time 4.0 day): Active

Cc1ccc2c(c1/C=C/C=C/C(=O)O)[C@H](C)C[C@H](CO)C2
inhibition (RAW264.7 [3]): Active

C[C@@H]1C[C@](O)(CO)C[C@@H]2C=C[C@H](C)[C@H](/C=C/C=C/C(=O)O)[C@@H]12
inhibition (RAW264.7 [1]): Dose-Dependent Effect

Cc1ccc2c(c1/C=C/C=C/C(=O)O)[C@H](C)C[C@H](C)[C@@H]2O
inhibition (RAW264.7 [3]): Active

CC1=CC(=O)[C@H]2C[C@@H](C)C[C@@H](C)[C@@H]2[C@]1(O)/C=C/C=C/C(=O)O
inhibition (RAW264.7 [1]): Dose-Dependent Effect

C[C@@H]1C[C@@](C)(O)C[C@@H]2C=C[C@H](C)[C@H](/C=C/C(=O)O)[C@@H]12
inhibition (RAW264.7 [1]): Dose-Dependent Effect

C[C@@H]1C[C@@](C)(O)C[C@@H]2C=C[C@H](C)[C@H](/C=C/C=C/C(=O)O)[C@@H]12
inhibition (RAW264.7 [1]): Dose-Dependent Effect
